The test system of the test is ZR75 cells. Nature of the test: 3H-thymidine incorporation (DNA synthesis) / proliferation of ZR75 cells, estrogen-like activity. It is filed as cell-based, human. Particulars: for activity at 0.001 µM / activity at 0.01 µM / activity at 0.1 µM / activity at 1 µM: Homo sapiens, control water; for activity at 0.001 µM: 1 nM; for activity at 0.01 µM: 10 nM; for activity at 0.1 µM: 100 nM; for activity at 1 µM: 1000 nM, read-out: DNA synthesis (% of Control). The text has this:
The following test was employed to determine whether resveratrol has an estrogen-like activity:
The ZR75 cell line is a ductal breast carcinoma cell line, originally isolated from malignant mammary epithelium of a person (Engel et al., Human breast carcinoma cells in continuous culture: A review., Cancer Res., 38: 4327-4339, 1978). This cell line contains receptors for estrogen, progesterone and other steroid hormones, but responds through an increase in proliferation only to estrogen. The cell line contains high affinity estrogen-specific receptors. Therefore, this cell line is used for testing estrogen-like activity (Markiewicz et al., In vitro bioassays of non-steroidal phytoestrogens, J. Steroid Biochem. Molec. Biol., 45: 399-405, 1993)
Methodology Used for Determining the Rate of DNA Synthesis in Cells
The incorporation of ^3 H-thymidine by cultured cells was used as an assay of cell proliferation (both for ZR75 cells and for keratinocytes). Thymidine is one of four deoxynucleosides which are the monomeric units of DNA. Prior to cell division of a somatic cell, the complete genome of the cell undergoing cell division is replicated. This involves large scale DNA synthesis by the cell and enables both daughter cells to receive identical copies of the genetic material. When ^3 H-thymidine is included in the culture media of cells which are synthesizing DNA in preparation for cell division then the labeled thymidine is incorporated into the newly synthesized DNA. The extent of incorporation of ^3 H-thymidine into a population of cells is proportional to the rate of DNA synthesis by this population of cells and therefore an indication of their cellular proliferation.
ZR75 cells (from American Type Culture Collection, Rockville, Md.) were grown in RPMI1640 media (from Gibco Life Technologies) with 10% fetal bovine serum (FBS) , 100 units penicillin per ml and 100 units of streptomycin per ml. All incubations were performed at 37° C. in 5% CO2. […] The cells were seeded at a density of one million per 75 cm2 flask. For the experiment, the cells were seeded in 24 well plates at 100,000 cells per ml per well.
After growing for 24 hours, the media was removed, the cells were washed with PBS (phosphate buffered saline, 0.01 M sodium phosphate, 0.138 M sodium chloride, 0.0027 M potassium chloride, pH 7.4) and 1 ml of RPMI 1640 without serum (but with streptomycin and penicillin) was added. Stock solutions of resveratrol in dimethyl sulfoxide (DMSO) and estradiol in water were prepared. […] After another 24 hours, one μCi of [methyl-3H] thymidine was added to each well. The media was removed after 24 hours. The cells were washed once in PBS, the PBS was removed completely and the cells were left on ice to incubate with 1 ml per well of 10% TCA (trichloroacetic acid) for 30 minutes. The plates were washed 3 times with 5% TCA to remove all traces of thymidine which wasn't incorporated into the cells. 500 μl of 0.1M sodium hydroxide was added to each well and the plates were incubated at room temperature for at least 30 minutes. 250 μl of each sample was transferred to scintillation vials and after adding 5 mL of counting fluid, the vials were counted for 5 minutes each on a setting for tritium. […] Values were expressed as mean of quadruplicate wells +/- standard deviation.
For orientation: Dividing cells build labelled thymidine or BrdU into new DNA.

Structures are written as SMILES. Where two headings read alike, the source gives them in different places.

Consider `C[C@]12CC[C@@H]3c4ccc(O)cc4CC[C@H]3[C@@H]1CC[C@@H]2O` [Estradiol, estradiol, reference compound], for which, for the setting “ZR75, EXPT 1”, the activity at 0.001 µM worked out at 220 ± 11%, the activity at 0.01 µM amounted to 210 ± 9.7%, the activity at 0.1 µM worked out at 205 ± 15.6% and the activity at 1 µM came out at 190 ± 24.5%. Further, for the setting “ZR75, EXPT 2”, the activity at 0.001 µM is 133 ± 29%, the activity at 0.01 µM was determined as 152 ± 17.7%, the activity at 0.1 µM was 156 ± 11.7% and the activity at 1 µM was determined as 142 ± 18.3%. Moreover, under “Table 1 summary”, the “proliferation of ZR 75 cells” value is listed as “stimulated proliferation of ZR 75 cells”.
